What was measured:
Test in all cases: combination Emax (second highest fraction inhibited in the dose matrix, 72 h); higher = more inhibition; extreme values may be limits of the assay
[1] = system: CADO-ES1 (Ewing's Sarcoma)
How it was run: (§1)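 Bliss excess equals the observed combination effect minus the expected value EA + EB − EA·EB, where EA and EB are the effects of each agent alone. Combination Emax is the second-highest inhibition within the matrix. Inhibition was scaled from CellTiter-Glo 2.0 luminescence, with 0 set by vehicle wells and 1 by blank wells, after 72 hours of two-drug dosing of cells plated in 1536-well plates.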

[2] = system: COLO-668 (Small Cell Lung Carcinoma)
How it was run: as §1

[3] = system: DU-145 (Prostate Carcinoma)
How it was run: as §1

[4] = system: EFO-21 (Ovarian Carcinoma)
How it was run: as §1

EW-1 (Ewing's Sarcoma) = system: EW-1 (Ewing's Sarcoma)
How it was run: as §1

[5] = system: G-401 (Other Solid Carcinomas)
How it was run: as §1

[6] = system: HAL-01 (B-Lymphoblastic Leukemia)
How it was run: as §1

[7] = system: HCC1500 (Breast Carcinoma)
How it was run: as §1

Hey (Ovarian Carcinoma) = system: Hey (Ovarian Carcinoma)
How it was run: as §1

[8] = system: KGN (Other Solid Carcinomas)
How it was run: as §1

[9] = system: ME-180 (Cervical Carcinoma)
How it was run: as §1

[10] = system: MOG-G-UVW (Low Grade Glioma)
How it was run: as §1

[11] = system: MV-4-11 (Acute Myeloid Leukemia)
How it was run: as §1

[12] = system: Mo-T (Other Blood Carcinomas)
How it was run: as §1

[13] = system: NCI-H2122 (Lung Adenocarcinoma)
How it was run: as §1

[14] = system: NCI-H522 (Lung Adenocarcinoma)
How it was run: as §1

[15] = system: NCI-H650 (Lung Adenocarcinoma)
How it was run: as §1

[16] = system: OACM5-1 (Esophageal Adenocarcinoma)
How it was run: as §1

[17] = system: OE33 (Esophageal Adenocarcinoma)
How it was run: as §1

[18] = system: SK-LU-1 (Lung Adenocarcinoma)
How it was run: as §1

Compound | combination Emax [1] | combination Emax [2] | combination Emax [3] | combination Emax [4] | combination Emax (EW-1 (Ewing's Sarcoma)) | combination Emax [5] | combination Emax [6] | combination Emax [7] | combination Emax (Hey (Ovarian Carcinoma)) | combination Emax [8] | combination Emax [9] | combination Emax [10] | combination Emax [11] | combination Emax [12] | combination Emax [13] | combination Emax [14] | combination Emax [15] | combination Emax [16] | combination Emax [17] | combination Emax [18]
CCN(CCO)CCCOc1ccc2c(Nc3cc(CC(=O)Nc4cccc(F)c4)[nH]n3)ncnc2c1 [AZD2811] + C=CCn1c(=O)c2cnc(Nc3ccc(N4CCN(C)CC4)cc3)nc2n1-c1cccc(C(C)(C)O)n1 [AZD1775] (first compound max 1 µM, partner max 1 µM) | 0.454 | 0.42 | 0.251 | 0.472 | 0.827 | 0.566 | 0.891 | 0.227 | 0.497 | 0.767 | 0.396 | 0.771 | 0.936 | 0.311 | 0.897 | 0.218 | 0.301 | 0.339 | 0.467 | 0.416
CC(=O)c1c(C)c2cnc(Nc3ccc(N4CCNCC4)cn3)nc2n(C2CCCC2)c1=O [Palbociclib] + Cc1c2c(nn1C)CSCc1cc(n(C)n1)CSc1cc(c3ccccc3c1)OCCCc1c(C(=O)O)n(C)c3c-2c(Cl)ccc13 [AZD5991] (first compound max 10 µM, 7x7, partner max 1 µM) | 0.46 | 0.304 | 0.107 | 0.256 | 0.491 | 0.854 | 0.935 | 0.434 | 0.431 | 0.644 | 0.151 | 0.526 | 1 | 0.344 | 0.773 | 0.57 | 0.244 | 0.932 | 0.275 | 0.297
Cc1c2c(nn1C)CSCc1cc(n(C)n1)CSc1cc(c3ccccc3c1)OCCCc1c(C(=O)O)n(C)c3c-2c(Cl)ccc13 [AZD5991] + C1CN(CCC1(C(=O)N[C@@H](CCO)C2=CC=C(C=C2)Cl)N)C3=NC=NC4=C3C=CN4 [Capivasertib] (first compound max 1 µM, 7x7, partner max 3 µM) | 0.927 | 0.303 | 0.187 | 0.179 | 0.415 | 0.56 | 0.527 | 0.377 | 0.156 | 0.329 | 0.517 | 0.444 | 1 | 0.281 | 0.608 | 0.507 | 0.209 | 0.969 | 0.112 | 0.303
CCN(CCO)CCCOc1ccc2c(Nc3cc(CC(=O)Nc4cccc(F)c4)[nH]n3)ncnc2c1 [AZD2811] + O=C(c1cc(Cc2n[nH]c(=O)c3ccccc23)ccc1F)N1CCN(C(=O)C2CC2)CC1 [Olaparib] (first compound max 1 µM, 7x7, partner max 10 µM) | 0.531 | 0.178 | 0.199 | 0.203 | 0.709 | 0.496 | 0.37 | 0.22 | 0.319 | 0.629 | 0.252 | 0.668 | 0.961 | 0.369 | 0.437 | 0.221 | 0.164 | 0.247 | 0.127 | 0.229
NC1(C(=O)N[C@@H](CCO)c2ccc(Cl)cc2)CCN(c2ncnc3[nH]ccc23)CC1 [Capivasertib] + COc1nnc2ccc(N3CCC(c4ccc(OCCN5CCN(C)C(=O)[C@H]5C)cc4)CC3)nn12 [AZD5153] (first compound max 10 µM, 7x7, partner max 1 µM) | 0.356 | 0.786 | 0.251 | 0.321 | 0.71 | 0.79 | 0.719 | 0.264 | 0.556 | 0.709 | 0.693 | 0.835 | 1 | 0.649 | 0.817 | 0.381 | 0.579 | 0.805 | 0.319 | 0.381
NC1(C(=O)N[C@@H](CCO)c2ccc(Cl)cc2)CCN(c2ncnc3[nH]ccc23)CC1 [Capivasertib] + Cn1cnc2c(F)c(Nc3ccc(Br)cc3Cl)c(C(=O)NOCCO)cc21 [Selumetinib] (first compound max 10 µM, 7x7, partner max 10 µM) | 0.279 | 0.669 | 0.219 | 0.335 | 0.437 | 0.746 | 0.554 | 0.25 | 0.773 | 0.54 | 0.681 | 0.714 | 0.881 | 0.41 | 0.983 | 0.268 | 0.352 | 0.7 | 0.423 | 0.437
CC(=O)c1c(C)c2cnc(Nc3ccc(N4CCNCC4)cn3)nc2n(C2CCCC2)c1=O [Palbociclib] + CC1(C)CCC(CN2CCN(c3ccc(C(=O)NS(=O)(=O)c4ccc(NCC5CCOCC5)c([N+](=O)[O-])c4)c(Oc4cnc5[nH]ccc5c4)c3)CC2)=C(c2ccc(Cl)cc2)C1 [Venetoclax] (first compound max 10 µM, 7x7, partner max 1 µM) | 0.678 | 0.114 | 0.0454 | 0.105 | 0.528 | 0.849 | 0.99 | 0.545 | 0.355 | 0.507 | 0.0846 | 0.497 | 1 | 0.297 | 0.688 | 0.127 | 0.172 | 0.479 | 0.121 | 0.279
Cn1cnc2c(F)c(Nc3ccc(Br)cc3Cl)c(C(=O)NOCCO)cc21 [Selumetinib] + CCN(CCO)CCCOc1ccc2c(Nc3cc(CC(=O)Nc4cccc(F)c4)[nH]n3)ncnc2c1 [AZD2811] (first compound max 10 µM, 7x7, partner max 1 µM) | 0.276 | 0.407 | 0.203 | 0.212 | 0.391 | 0.561 | 0.441 | 0.157 | 0.611 | 0.514 | 0.245 | 0.642 | 0.974 | 0.238 | 0.962 | 0.171 | 0.387 | 0.44 | 0.364 | 0.301
NC1(C(=O)N[C@@H](CCO)c2ccc(Cl)cc2)CCN(c2ncnc3[nH]ccc23)CC1 [Capivasertib] + CC(C)n1c(=O)n(C)c2cnc3cc(F)c(-c4ccc(OCCCN5CCCCC5)nc4)cc3c21 [AZD1390] (first compound max 10 µM, 7x7, partner max 0.3 µM) | 0.0981 | 0.401 | 0.249 | 0.217 | 0.352 | 0.545 | 0.492 | 0.165 | 0.225 | 0.414 | 0.636 | 0.576 | 0.722 | 0.239 | 0.57 | 0.192 | 0.268 | 0.71 | 0.185 | 0.195
COc1nnc2ccc(N3CCC(c4ccc(OCCN5CCN(C)C(=O)[C@H]5C)cc4)CC3)nn12 [AZD5153] + CCN(CCO)CCCOc1ccc2c(Nc3cc(CC(=O)Nc4cccc(F)c4)[nH]n3)ncnc2c1 [AZD2811] (first compound max 1 µM, 7x7, partner max 1 µM) | 0.248 | 0.264 | 0.265 | 0.425 | 0.64 | 0.806 | 0.752 | 0.41 | 0.618 | 0.691 | 0.524 | 0.802 | 1 | 0.599 | 0.853 | 0.344 | 0.443 | 0.734 | 0.301 | 0.404
Cn1cnc2c(F)c(Nc3ccc(Br)cc3Cl)c(C(=O)NOCCO)cc21 [Selumetinib] + CC(C)n1c(=O)n(C)c2cnc3cc(F)c(-c4ccc(OCCCN5CCCCC5)nc4)cc3c21 [AZD1390] (first compound max 10 µM, 7x7, partner max 0.3 µM) | 0.175 | 0.421 | 0.16 | 0.205 | 0.159 | 0.367 | 0.48 | 0.157 | 0.549 | 0.341 | 0.209 | 0.346 | 0.711 | 0.246 | 0.864 | 0.0811 | 0.243 | 0.209 | 0.265 | 0.264
Cc1c2c(nn1C)CSCc1cc(n(C)n1)CSc1cc(c3ccccc3c1)OCCCc1c(C(=O)O)n(C)c3c-2c(Cl)ccc13 [AZD5991] + CN(C)CCCOc1ccc(-c2ccc3ncc4c(c3c2)n(C2CCOCC2)c(=O)n4C)cn1 [AZD0156] (first compound max 1 µM, 7x7, partner max 1 µM) | 0.946 | 0.222 | 0.192 | 0.247 | 0.375 | 0.733 | 0.686 | 0.53 | 0.254 | 0.425 | 0.278 | 0.247 | 1 | 0.229 | 0.656 | 0.387 | 0.272 | 0.928 | 0.156 | 0.3
Cc1c2c(nn1C)CSCc1cc(n(C)n1)CSc1cc(c3ccccc3c1)OCCCc1c(C(=O)O)n(C)c3c-2c(Cl)ccc13 [AZD5991] + CC1(C)CCC(CN2CCN(c3ccc(C(=O)NS(=O)(=O)c4ccc(NCC5CCOCC5)c([N+](=O)[O-])c4)c(Oc4cnc5[nH]ccc5c4)c3)CC2)=C(c2ccc(Cl)cc2)C1 [Venetoclax] (first compound max 1 µM, 7x7, partner max 1 µM) | 0.911 | 0.686 | 0.149 | 0.207 | 0.684 | 0.565 | 0.984 | 1 | 0.133 | 0.263 | 0.286 | 0.257 | 1 | 0.196 | 0.823 | 0.443 | 0.329 | 0.917 | 0.21 | 0.258
